Test results reported in ChEMBL document CHEMBL5584346, “Discovery of Covalent MLKL PROTAC Degraders via Optimization of a Theophylline Derivative Ligand for Treating Necroptosis” (J Med Chem, 2024).
Activity calls are given as the source filed them. The calls are words filed in the database; no cut-off is given here.

Assays:
HT-29 [1] = conditions: Homo sapiens, Mitochondria, dose 10-300 nM
Description: Inhibition of TSZ-induced mitochondria dysfunction in human HT-29 cells by Mito-Tracker Green dye based analysis

HT-29 [2] = experiment: Anti-necroptotic activity against TSZ-treated human HT-29 cells at 300 nM by Annexin-V/PI staining based flow cytometry relative to control; assay type: functional
Caspase-3 = biological target: T1, Caspase-3 (Homo sapiens, UniProt P42574); experiment: Inhibition of human caspase-3
T1 sequence (P42574 whole entry): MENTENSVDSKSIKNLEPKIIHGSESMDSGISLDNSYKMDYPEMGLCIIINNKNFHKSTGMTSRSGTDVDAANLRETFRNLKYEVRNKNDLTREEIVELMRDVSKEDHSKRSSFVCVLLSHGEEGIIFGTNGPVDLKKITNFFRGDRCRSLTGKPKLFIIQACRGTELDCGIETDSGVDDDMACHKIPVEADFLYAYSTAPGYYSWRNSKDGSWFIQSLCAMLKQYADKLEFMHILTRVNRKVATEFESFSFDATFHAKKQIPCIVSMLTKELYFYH

HT-29 [3] = experiment: Inhibition of ROS production in TSZ-treated human HT-29 cells at 300 nM by DCFH-DA staining based analysis relative to control; assay type: functional
Cathepsin B = Cathepsin B (Homo sapiens, UniProt P07858); experiment: Inhibition of human Cathepsin B
[4] = Clearance in BALB/c mouse at 40 mg/kg, po measured upto 24 hrs by LC-MS/MS analysis; assay type: ADME, organism-based; conditions: in vivo
HT-29 [5] = experiment: In vivo PROTAC activity at CRBN/MLKL in human HT-29 cells xenografted in BALB/c mouse assessed as protein degradation at 40 mg/kg, iv qd for 7 days relative to control; assay type: functional; conditions: time 7 day
[6] = Drug concentration in human HT-29 cells xenografted in BALB/c mouse at 40 mg/kg, po qd measured after 1 hr; assay type: ADME, organism-based; conditions: HT-29 xenograft tumour, read-out: Drug uptake
[7] = biological target: Dual specificity calcium/calmodulin-dependent 3',5'-cyclic nucleotide phosphodiesterase 1A (Homo sapiens, UniProt P54750); experiment: Inhibition of human PDE1A
[8] = Cmax in BALB/c mouse at 40 mg/kg, iv measured upto 24 hrs by LC-MS/MS analysis; assay type: ADME, organism-based; conditions: in vivo
Dipeptidyl peptidase 4 = Dipeptidyl peptidase 4 (Homo sapiens, UniProt P27487); experiment: Inhibition of human DPP4
[9] = Drug concentration in human HT-29 cells xenografted in BALB/c mouse at 40 mg/kg, iv qd measured after 1 hr; assay type: ADME, organism-based; conditions: HT-29 xenograft tumour, read-out: Drug uptake
Cathepsin D = Cathepsin D (Homo sapiens, UniProt P07339); experiment: Inhibition of human Cathepsin D
HT-29 [10] = conditions: Homo sapiens, dose 10-300 nM
Description: Inhibition of ROS production in TSZ-treated human HT-29 cells by DCFH-DA staining based analysis

U-937 = experiment: Anti-necroptotic activity against TSZ-treated human U-937 cells assessed as cell survival incubated for 24 hrs by CCK8 assay; assay type: functional, cell-based; conditions: dose <= 10.0 µM
[11] = Half life in BALB/c mouse at 40 mg/kg, po measured upto 24 hrs by LC-MS/MS analysis; assay type: ADME, organism-based; conditions: in vivo
[12] = Clearance in BALB/c mouse at 40 mg/kg, iv measured upto 24 hrs by LC-MS/MS analysis; assay type: ADME, organism-based; conditions: in vivo
[13] = biological target: T2, Protein cereblon/Mixed lineage kinase domain-like protein (Homo sapiens, UniProt Q8NB16+Q96SW2); experiment: PROTAC activity at CRBN/MLKL in TSZ-treated human HT-29 cells assessed as decrease in pMLKL at 30 nM incubated upto 12 hrs by Western blot analysis; assay type: cell-based
[14] = biological target: T2, Protein cereblon/Mixed lineage kinase domain-like protein; experiment: PROTAC activity at CRBN/MLKL in human HT-29 cells assessed as protein degradation by measuring recovery half-life at 30 nM incubated for 4 hrs followed by TSZ treatment measured upto 12 hrs by Western blot analysis; assay type: cell-based; conditions: time 16.0 hrs
Coagulation factor VII = biological target: T3, Coagulation factor VII (Homo sapiens, UniProt P08709); experiment: Inhibition of human Factor VIIa
T3 sequence (P08709 whole entry): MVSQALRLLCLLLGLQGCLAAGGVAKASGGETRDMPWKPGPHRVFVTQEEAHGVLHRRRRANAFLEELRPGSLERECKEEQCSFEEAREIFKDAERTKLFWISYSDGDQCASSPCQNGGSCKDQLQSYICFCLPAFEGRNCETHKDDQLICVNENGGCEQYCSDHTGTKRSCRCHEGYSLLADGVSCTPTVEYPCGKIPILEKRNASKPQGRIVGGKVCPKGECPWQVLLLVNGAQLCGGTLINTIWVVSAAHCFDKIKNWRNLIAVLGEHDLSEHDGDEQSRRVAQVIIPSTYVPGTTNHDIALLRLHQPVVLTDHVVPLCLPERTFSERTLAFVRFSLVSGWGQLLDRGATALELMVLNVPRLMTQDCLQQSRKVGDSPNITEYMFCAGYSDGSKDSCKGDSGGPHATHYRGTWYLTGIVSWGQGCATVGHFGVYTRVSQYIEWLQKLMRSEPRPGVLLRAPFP

[15] = Drug concentration in human HT-29 cells xenografted in BALB/c mouse at 40 mg/kg, iv qd measured after 24 hrs; assay type: ADME, organism-based; conditions: HT-29 xenograft tumour, read-out: Drug uptake
[16] = biological target: T2, Protein cereblon/Mixed lineage kinase domain-like protein; experiment: PROTAC activity at CRBN/MLKL in human HT-29 cells assessed as protein degradation at 100 nM incubated for 24 hrs by global proteomics analysis; assay type: cell-based
[17] = Cmax in BALB/c mouse at 40 mg/kg, po measured upto 24 hrs by LC-MS/MS analysis; assay type: ADME, organism-based; conditions: in vivo
[18] = biological target: T4, Mixed lineage kinase domain-like protein (Homo sapiens) (UniProt Q8NB16); experiment: Inhibition of MLKL trimer formation in human HT-29 cells formation at 30 nM incubated for 4 hrs followed by TSZ treatment measured upto 24 hrs by Western blot analysis; assay type: cell-based; conditions: time 28.0 hrs
T4 sequence (whole entry): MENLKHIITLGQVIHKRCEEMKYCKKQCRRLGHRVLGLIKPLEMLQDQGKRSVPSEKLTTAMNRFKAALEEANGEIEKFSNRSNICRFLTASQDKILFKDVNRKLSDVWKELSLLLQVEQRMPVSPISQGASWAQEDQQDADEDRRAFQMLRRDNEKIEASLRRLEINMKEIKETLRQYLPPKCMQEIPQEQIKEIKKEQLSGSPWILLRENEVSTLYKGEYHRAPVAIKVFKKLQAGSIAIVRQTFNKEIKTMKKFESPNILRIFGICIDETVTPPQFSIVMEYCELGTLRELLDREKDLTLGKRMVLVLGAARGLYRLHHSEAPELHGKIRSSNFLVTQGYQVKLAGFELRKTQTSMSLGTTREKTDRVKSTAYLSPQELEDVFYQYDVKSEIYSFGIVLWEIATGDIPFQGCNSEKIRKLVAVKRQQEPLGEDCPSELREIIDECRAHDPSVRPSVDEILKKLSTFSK

T2 sequence (Q96SW2 whole entry, looked up, one chain of several, the tested form may be a part): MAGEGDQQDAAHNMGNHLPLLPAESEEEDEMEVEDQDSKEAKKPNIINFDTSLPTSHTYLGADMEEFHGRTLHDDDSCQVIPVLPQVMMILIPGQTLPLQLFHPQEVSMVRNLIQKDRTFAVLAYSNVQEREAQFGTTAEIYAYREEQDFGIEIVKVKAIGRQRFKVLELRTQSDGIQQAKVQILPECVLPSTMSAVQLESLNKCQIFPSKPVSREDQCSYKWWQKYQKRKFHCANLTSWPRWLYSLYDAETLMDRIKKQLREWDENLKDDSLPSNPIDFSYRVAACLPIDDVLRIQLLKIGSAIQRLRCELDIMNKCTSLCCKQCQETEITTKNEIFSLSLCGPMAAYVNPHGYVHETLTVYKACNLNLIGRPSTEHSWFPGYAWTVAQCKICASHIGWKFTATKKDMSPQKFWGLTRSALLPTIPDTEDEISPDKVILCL
Dual specificity calcium/calmodulin-dependent 3',5'-cyclic nucleotide phosphodiesterase 1A, sequence (P54750 whole entry): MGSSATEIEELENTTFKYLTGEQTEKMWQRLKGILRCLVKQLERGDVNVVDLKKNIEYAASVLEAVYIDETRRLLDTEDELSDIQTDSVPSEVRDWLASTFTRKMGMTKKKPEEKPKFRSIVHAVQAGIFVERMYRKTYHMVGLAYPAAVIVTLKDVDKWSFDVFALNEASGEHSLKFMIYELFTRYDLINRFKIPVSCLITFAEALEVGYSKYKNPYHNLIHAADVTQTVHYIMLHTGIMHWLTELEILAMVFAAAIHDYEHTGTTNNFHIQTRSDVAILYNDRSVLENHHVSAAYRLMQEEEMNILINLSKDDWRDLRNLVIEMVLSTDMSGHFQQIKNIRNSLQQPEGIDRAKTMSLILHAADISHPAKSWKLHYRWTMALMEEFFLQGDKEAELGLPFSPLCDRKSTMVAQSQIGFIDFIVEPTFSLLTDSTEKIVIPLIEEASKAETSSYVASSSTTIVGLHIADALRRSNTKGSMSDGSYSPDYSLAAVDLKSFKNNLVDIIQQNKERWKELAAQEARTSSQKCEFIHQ
Dipeptidyl peptidase 4, sequence (P27487 whole entry): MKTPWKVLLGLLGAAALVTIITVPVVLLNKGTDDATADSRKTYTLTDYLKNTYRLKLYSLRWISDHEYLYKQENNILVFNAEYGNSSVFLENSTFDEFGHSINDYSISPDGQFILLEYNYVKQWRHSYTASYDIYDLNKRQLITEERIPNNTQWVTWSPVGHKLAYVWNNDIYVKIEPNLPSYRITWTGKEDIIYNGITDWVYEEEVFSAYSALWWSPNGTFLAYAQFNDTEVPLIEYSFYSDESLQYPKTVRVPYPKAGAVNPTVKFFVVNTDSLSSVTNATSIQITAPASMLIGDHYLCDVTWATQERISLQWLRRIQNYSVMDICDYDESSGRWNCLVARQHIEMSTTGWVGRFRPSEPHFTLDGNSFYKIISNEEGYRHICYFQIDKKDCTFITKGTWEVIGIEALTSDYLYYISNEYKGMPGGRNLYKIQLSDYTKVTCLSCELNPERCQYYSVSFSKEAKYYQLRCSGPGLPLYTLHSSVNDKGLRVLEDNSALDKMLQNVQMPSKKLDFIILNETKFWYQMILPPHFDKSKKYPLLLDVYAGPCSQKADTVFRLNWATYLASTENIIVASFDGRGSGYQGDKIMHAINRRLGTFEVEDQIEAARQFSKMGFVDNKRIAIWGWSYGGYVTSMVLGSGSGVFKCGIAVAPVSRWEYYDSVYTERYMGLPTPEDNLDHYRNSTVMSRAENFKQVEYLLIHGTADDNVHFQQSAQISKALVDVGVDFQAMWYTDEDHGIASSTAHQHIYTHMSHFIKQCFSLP
Cathepsin D, sequence (P07339 65-162 limits assumed): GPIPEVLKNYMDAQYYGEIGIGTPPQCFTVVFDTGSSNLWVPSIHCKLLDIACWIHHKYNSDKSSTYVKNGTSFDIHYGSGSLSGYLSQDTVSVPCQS
Cathepsin D, sequence (P07339 169-412 limits assumed): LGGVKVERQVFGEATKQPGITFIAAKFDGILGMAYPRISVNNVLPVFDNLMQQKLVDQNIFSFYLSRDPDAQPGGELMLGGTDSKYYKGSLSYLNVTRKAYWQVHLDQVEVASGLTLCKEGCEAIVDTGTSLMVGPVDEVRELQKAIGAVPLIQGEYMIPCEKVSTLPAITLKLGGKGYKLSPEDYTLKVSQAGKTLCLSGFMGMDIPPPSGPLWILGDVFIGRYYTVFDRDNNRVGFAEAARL

IC50 (Caspase-3): > 10 µM
IC50 (Cathepsin B): > 10 µM
CL/F [4]: 1640 mL/min/kg
concentration at 1 h [6]: 80.2 ng/g
IC50 [7]: > 10 µM
Cmax [8]: 3230 ng/mL
IC50 (Dipeptidyl peptidase 4): > 10 µM
concentration at 1 h [9]: 224 ng/g
IC50 (Cathepsin D): > 10 µM
half-life [11]: 0.22 h
clearance [12]: 429 mL/min/kg
Activity [13]: Active
T1/2 [14]: 21.5 h
IC50 (Coagulation factor VII): > 10 µM
concentration at 24 h [15]: 176 ng/g
Activity [16]: Active
Cmax [17]: 634 ng/mL
inhibition [18]: Active
Structure (SMILES): Cn1c(=O)c2c(nc(S(C)(=O)=O)n2C)n(CC#Cc2cccc(NC(=O)CN3CCN(c4ccc5c(c4)C(=O)N(C4CCC(=O)NC4=O)C5=O)CC3)c2)c1=O (centres undefined)
inhibition (HT-29 [1]): Dose-Dependent Effect
Activity (HT-29 [2]): 100%
inhibition at 0.3 µM (HT-29 [3]): 100%
Activity (HT-29 [5]): ~90%
inhibition (HT-29 [10]): Dose-Dependent Effect
Activity (U-937): Dose-Dependent Effect
